Activity calls are given as the source filed them.
Experiments:
[1] = Cytotoxicity screening for potential Inhibitors of Bacterial Capsule Biogenesis. [Related pubchem assays (depositor defined):AID488970]; format: functional
[2] = system: HEK293; assay: Fluorescence-based counterscreen for potentiators or agonists of NPY-Y2: cell-based high-throughput dose response assay to identify inhibitors of cyclic nucleotide gated ion channel (CNGC) activity. In this assay, the parental HEK293 cell line transfected with a cyclic-nucleotide gated ion channel (CNGC)-based cAMP sensor is used to measure inhibition of isoproterenol-induced CNGC activity by test compound.; format: functional; settings: Homo sapiens;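 further: stimulus is 1 µM isoproterenol at EC100 plus PDE inhibitor Ro 20-1724 at 25 µM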
[3] = Trypanosoma cruzi growth suppression in host cells – NIH3T3 host cells, beta-gal luminescence, confirmation (AID 2044); format: functional, cell-based;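 further: intracellular parasites grown in NIH/3T3 mouse fibroblasts as host cells; luminescent beta-galactosidase reporter signal from transgenic T. cruzi replicating inside host cells; inhibitors lower the luminescence signal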
[4] = biological target: Neuropeptide Y receptor type 1 (Homo sapiens, UniProt P25929); assay: Fluorescence-based counterscreen for agonists of NPY-Y2: cell-based high-throughput dose response assay for agonists of NPY-Y1.; format: functional
Neuropeptide Y receptor type 1, sequence (P25929 whole entry): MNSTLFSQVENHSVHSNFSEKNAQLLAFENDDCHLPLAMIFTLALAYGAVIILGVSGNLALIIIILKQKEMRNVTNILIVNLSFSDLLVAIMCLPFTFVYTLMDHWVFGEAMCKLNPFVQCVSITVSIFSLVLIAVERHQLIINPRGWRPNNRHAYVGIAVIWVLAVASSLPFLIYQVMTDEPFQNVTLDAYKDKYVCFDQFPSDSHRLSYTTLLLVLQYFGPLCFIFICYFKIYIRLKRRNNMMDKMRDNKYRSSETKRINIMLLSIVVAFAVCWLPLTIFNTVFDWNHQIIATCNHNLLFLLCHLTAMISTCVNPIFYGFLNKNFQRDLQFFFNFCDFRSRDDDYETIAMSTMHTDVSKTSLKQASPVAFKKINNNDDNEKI

[5] = NIH3T3 cell viability loss – ATP luminescence, mouse fibroblasts, counter-screen, dose response (AID 2010); format: functional, cell-based;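 further: cells exposed to compound for about 90 hours before reading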
[6] = biological target: T1, Polyadenylate-binding protein 1 (Homo sapiens, UniProt P11940); assay: MLLE binding blockers, Cy5 peptide tracer – biochemical, fluorescence polarization, Cy5-PAM2 peptide, secondary, miRNA deadenylation inhibitor project, dose response (AID 602260); format: functional; settings: read-out: IC50_Mean
T1 sequence (P11940 whole entry): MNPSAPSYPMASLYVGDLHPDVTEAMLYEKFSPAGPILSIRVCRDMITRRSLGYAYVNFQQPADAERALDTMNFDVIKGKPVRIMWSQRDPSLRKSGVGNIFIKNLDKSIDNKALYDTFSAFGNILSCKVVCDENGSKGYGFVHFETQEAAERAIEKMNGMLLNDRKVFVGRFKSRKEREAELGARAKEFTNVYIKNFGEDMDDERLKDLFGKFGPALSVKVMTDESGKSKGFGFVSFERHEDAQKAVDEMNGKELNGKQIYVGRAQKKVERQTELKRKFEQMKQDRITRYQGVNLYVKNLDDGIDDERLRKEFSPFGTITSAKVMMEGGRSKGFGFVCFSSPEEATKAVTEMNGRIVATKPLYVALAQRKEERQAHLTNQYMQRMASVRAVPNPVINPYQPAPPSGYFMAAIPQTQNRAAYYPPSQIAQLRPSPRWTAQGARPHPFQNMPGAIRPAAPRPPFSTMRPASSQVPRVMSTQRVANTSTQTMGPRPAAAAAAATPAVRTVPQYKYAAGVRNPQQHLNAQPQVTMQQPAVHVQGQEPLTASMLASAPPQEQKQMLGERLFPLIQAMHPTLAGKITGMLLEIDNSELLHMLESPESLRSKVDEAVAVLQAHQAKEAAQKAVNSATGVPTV

[7] = biological target: Neuropeptide Y receptor type 2 (Homo sapiens, UniProt P49146); assay: Fluorescence-based cell-based high-throughput dose response assay for agonists of NPY-Y2. [Related pubchem assays: 1703 (Screening assay (CNGC inhibitors).), 1359 (Screening assay (NPY-Y2 potentiators or agonists).), 1304 (Screening assay (NPY-Y1 potentiators or agonists).), 1710 (Screening assay (NPY-Y2 agonists).), 1791 (Summary AID.)]; format: functional
Neuropeptide Y receptor type 2, sequence (P49146 whole entry, the tested form may be a part): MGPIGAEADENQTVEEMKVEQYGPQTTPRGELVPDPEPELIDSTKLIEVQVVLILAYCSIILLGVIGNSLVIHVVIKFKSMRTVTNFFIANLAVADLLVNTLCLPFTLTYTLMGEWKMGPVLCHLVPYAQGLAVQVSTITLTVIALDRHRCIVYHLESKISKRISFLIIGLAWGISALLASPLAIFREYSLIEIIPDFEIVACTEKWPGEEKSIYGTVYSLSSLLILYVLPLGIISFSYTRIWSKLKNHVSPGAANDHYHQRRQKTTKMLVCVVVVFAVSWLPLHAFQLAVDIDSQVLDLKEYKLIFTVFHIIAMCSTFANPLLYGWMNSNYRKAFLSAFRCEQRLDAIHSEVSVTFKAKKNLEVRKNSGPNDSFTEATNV

[8] = biological target: T1, Polyadenylate-binding protein 1; assay: MLLE domain peptide-binding blockers, IC50 – biochemical, fluorescence polarization, FITC-PAM2 peptide, dose response (AID 602259); format: functional; settings: read-out: IC50_Mean
[9] = system: BJ; assay: BJ-TERT fibroblast viability loss – cell-based, RAS-independent, luminescence, dose response (AID 1933); format: functional; settings: Homo sapiens
[10] = biological target: Neurotensin receptor type 1 (Homo sapiens, UniProt P30989); format: functional;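 further: Image-based confirmatory dose-response assay measuring agonist activity at NTR1; NTR1-expressing U2OS osteosarcoma cells imaged for beta-arrestin GFP spot formation; agonist potency where compounds increase beta-arrestin recruitment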
Neurotensin receptor type 1, sequence (P30989 whole entry): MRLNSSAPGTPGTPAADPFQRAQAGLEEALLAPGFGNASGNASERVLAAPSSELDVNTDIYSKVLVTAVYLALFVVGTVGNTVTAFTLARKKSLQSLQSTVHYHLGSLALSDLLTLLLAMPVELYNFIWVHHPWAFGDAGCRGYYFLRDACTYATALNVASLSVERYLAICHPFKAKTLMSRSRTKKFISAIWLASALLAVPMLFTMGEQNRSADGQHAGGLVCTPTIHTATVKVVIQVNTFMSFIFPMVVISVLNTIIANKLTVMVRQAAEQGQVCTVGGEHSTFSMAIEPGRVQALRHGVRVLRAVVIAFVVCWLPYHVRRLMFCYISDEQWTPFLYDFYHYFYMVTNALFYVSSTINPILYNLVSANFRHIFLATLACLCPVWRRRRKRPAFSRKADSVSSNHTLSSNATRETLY

[11] = system: INS1; assay: INS-1E survival protection against cytokine death – cell-based, luminescence, retest, dose response (AID 449756); format: functional; settings: Rattus norvegicus;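 further: cell death triggered by IL-1 beta plus TNF-alpha plus IFN-gamma mixture; protective hits raise ATP signal compared with cytokine alone wells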
[12] = biological target: T2, Sphingosine 1-phosphate receptor 4 (Homo sapiens, UniProt O95977); assay: Fluorescence dose response cell-based high throughput screening assay for antagonists of the Sphingosine 1-Phosphate Receptor 4 (S1P4). [Related pubchem assays: 1524 (Confirmation in triplicates.), 1510 (Primary screen.)]; format: functional
T2 sequence (O95977 whole entry): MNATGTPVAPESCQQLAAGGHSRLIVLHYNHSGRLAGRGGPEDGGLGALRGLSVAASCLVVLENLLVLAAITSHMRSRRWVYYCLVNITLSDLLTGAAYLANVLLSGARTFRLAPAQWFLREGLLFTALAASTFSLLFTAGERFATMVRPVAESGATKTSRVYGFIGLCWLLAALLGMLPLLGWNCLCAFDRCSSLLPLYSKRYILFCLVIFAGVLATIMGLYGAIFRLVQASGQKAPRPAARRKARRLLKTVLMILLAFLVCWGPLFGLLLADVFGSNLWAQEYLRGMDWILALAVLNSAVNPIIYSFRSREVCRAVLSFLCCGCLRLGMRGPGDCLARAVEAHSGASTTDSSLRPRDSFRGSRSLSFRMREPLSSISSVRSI

[13] = system: BJ; assay: cells; format: functional, cell-based; settings: Homo sapiens
[14] = system: BJ; assay: BJ-TERT-LT-ST fibroblast viability loss – cell-based, RAS-independent, luminescence, dose response (AID 1935); format: functional; settings: Homo sapiens;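 further: BJ fibroblasts immortalized with TERT plus LT and ST oncogenes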
[15] = DRD fibroblast viability loss – cell-based, non-viral oncogenic, luminescence, dose response (AID 1934); format: functional; settings: Homo sapiens
[16] = loss of viability in HepG2 cells – cell-based, CellTiter-Glo, cherry-picked, cytotoxicity control for Shn3 inhibitor project, dose response (AID 624134); format: functional
[17] = reduction of Shn3 3'UTR-driven luciferase in osteoblasts – cell-based, Clone20 osteoblasts, firefly luciferase, cherry-picked, dose response (AID 624132); format: functional;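 further: firefly luciferase luminescence from reporter carrying the Shn3 3'UTR in osteoblasts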
[18] = microbe, parasite or virus in culture; format: functional; settings: Mycobacterium tuberculosis
[19] = non-specific 3'UTR reporter inhibition in Clone20-Shn3RL – cell-based, Renilla luciferase, cherry-picked, counter-screen for Shn3 inhibitor project, dose response (AID 624133); format: functional
[20] = biological target: T2, Sphingosine 1-phosphate receptor 4; assay: Late stage fluorescence dose response cell-based screening assay for antagonists of the Sphingosine 1-Phosphate Receptor 4 (S1P4). [Related pubchem assays: 1524 (Confirmation screen (S1P4 antagonists).), 1510 (Primary screen (S1P4 antagonists).), 1853 (Summary AID (S1P4 antagonists).), 1692 (Dose response screen (S1P4 antagonists).)]; format: functional
[21] = biological target: Sphingosine 1-phosphate receptor 1 (Homo sapiens, UniProt P21453); format: functional;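 further: Tango beta-arrestin reporter U2OS cells stimulated with S1P near its EC80; inhibitor potency meaning antagonism of receptor activation by the natural agonist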
Sphingosine 1-phosphate receptor 1, sequence (P21453 whole entry): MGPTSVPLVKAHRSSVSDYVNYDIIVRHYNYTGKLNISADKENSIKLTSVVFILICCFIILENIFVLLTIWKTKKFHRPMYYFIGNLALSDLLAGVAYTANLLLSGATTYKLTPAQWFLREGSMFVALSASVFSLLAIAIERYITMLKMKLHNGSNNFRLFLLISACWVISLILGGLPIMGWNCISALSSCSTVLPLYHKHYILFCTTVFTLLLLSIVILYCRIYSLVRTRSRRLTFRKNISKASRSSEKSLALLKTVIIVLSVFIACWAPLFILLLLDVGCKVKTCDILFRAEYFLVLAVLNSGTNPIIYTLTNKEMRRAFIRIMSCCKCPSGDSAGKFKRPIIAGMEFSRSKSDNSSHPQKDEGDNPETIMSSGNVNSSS

[22] = biological target: T1, Polyadenylate-binding protein 1; assay: blockers of PABP interaction with poly(A) – biochemical, fluorescence polarization, […] (AID 2014)
[23] = biological target: Eukaryotic translation initiation factor 4H (Homo sapiens, UniProt Q15056); assay: eIF4H binding inhibition – biochemical, uHTS, fluorescence polarization, translation initiation inhibitor project, primary screen (AID 2012)
[24] = biological target: X-box-binding protein 1 (Homo sapiens, UniProt P17861); format: functional, Cricetulus griseus;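 further: confirmatory dose-response counter-screen serving a CHOP assay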
X-box-binding protein 1, sequence (P17861 whole entry): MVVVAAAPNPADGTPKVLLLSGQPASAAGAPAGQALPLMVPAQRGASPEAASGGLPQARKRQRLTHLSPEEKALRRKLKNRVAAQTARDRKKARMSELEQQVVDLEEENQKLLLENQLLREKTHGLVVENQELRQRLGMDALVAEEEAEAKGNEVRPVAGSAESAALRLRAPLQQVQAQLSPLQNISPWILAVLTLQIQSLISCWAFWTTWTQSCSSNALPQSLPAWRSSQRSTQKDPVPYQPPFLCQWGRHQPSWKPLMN

[25] = biological target: Peroxisome proliferator-activated receptor gamma/Nuclear receptor corepressor 2 (Homo sapiens, UniProt P37231+Q9Y618); format: functional
[26] = biological target: Photoreceptor-specific nuclear receptor (Homo sapiens, UniProt Q9Y5X4); format: functional;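 further: potency for compounds that break the NR2E3 corepressor complex and count as activators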
Photoreceptor-specific nuclear receptor, sequence (Q9Y5X4 whole entry): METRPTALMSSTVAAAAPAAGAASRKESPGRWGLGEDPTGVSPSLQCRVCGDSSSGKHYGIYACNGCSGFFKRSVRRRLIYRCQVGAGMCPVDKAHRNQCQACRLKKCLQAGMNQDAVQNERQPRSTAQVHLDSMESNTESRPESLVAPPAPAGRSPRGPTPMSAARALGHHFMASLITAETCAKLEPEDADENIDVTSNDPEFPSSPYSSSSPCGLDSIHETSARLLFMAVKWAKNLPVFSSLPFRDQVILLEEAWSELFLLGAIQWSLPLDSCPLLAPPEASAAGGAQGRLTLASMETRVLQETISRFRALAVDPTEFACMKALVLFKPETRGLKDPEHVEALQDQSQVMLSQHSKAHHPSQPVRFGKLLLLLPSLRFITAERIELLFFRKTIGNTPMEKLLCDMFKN

[27] = biological target: Coagulation factor XII (Homo sapiens, UniProt P00748); assay: activated coagulation factor XII inhibitor potency, concentration-effect curve, cell-free (AID 716); format: functional
Coagulation factor XII, sequence (P00748 20-372 limits assumed): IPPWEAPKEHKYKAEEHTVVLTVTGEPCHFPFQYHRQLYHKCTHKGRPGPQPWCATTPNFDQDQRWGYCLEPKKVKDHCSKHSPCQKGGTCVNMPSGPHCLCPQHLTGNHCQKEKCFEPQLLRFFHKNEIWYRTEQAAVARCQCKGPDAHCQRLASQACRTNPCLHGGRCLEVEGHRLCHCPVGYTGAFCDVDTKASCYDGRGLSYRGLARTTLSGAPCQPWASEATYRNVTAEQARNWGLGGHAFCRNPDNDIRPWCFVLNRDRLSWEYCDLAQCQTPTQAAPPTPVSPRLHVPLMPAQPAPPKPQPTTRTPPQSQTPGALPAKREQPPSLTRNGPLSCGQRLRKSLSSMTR
Coagulation factor XII, sequence (P00748 373-615 limits assumed): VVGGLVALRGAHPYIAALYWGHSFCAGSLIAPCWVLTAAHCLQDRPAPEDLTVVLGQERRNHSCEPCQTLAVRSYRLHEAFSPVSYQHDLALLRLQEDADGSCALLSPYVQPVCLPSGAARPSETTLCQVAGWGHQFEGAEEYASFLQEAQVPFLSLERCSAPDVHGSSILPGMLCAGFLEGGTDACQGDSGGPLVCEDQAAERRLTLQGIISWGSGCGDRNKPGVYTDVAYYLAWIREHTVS

[28] = biological target: Scavenger receptor class B member 1 (Mus musculus, UniProt Q61009); assay: mouse SR-BI DiI-HDL uptake blockers – ldlA[mSR-BI] cells, fluorescence, cherry pick, dose response (AID 493194); format: functional, cell-based;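 further: cellular uptake of fluorescent DiI-labeled HDL measured as cell fluorescence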
Scavenger receptor class B member 1, sequence (Q61009 whole entry): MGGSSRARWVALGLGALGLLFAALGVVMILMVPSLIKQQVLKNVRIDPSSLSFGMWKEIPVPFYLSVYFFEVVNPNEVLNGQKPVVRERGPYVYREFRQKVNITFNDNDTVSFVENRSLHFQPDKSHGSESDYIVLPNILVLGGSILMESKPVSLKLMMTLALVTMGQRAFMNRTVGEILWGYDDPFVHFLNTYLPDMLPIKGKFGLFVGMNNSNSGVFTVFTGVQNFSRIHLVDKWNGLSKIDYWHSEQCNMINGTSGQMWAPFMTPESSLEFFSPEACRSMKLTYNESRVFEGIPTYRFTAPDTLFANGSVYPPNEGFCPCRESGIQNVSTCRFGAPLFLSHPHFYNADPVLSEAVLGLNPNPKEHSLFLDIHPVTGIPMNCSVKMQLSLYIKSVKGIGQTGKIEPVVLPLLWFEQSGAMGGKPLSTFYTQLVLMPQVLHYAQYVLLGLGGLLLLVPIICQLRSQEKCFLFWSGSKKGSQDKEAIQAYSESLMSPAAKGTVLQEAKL

For `N=C(N)SCCc1cccc(CCSC(=N)N)c1`, the CC50 [1] was 47.9 µM (active).

In the case of `COc1ccc(N=C(S)NC(NC(=O)c2cccc(Cl)c2)C(Cl)(Cl)Cl)c([N+](=O)[O-])c1` (centres undefined), the EC50 [2] is reported as > 35.4 µM (not active), the EC50 [3] is reported as 1.6 µM (active) and the EC50 [4] is reported as 16.7 µM (not active). For the same compound, the EC50 [5] was > 30 µM (not active), the IC50 [6] was > 66 µM (inactive) and the EC50 [7] was > 35.4 µM (not active). For the same compound, the IC50 [8] was > 66 µM (inactive).

For `O=C(/C(=C/c1ccc(Cl)cc1)c1nc2ccccc2[nH]1)c1cccs1`, the EC50 [9] was 4.27 µM (inconclusive), the EC50 [10] was 12.6 µM (active) and the AC50 [11] was 3.71 µM (active). For the same compound, the IC50 [12] was 0.37 µM (active), the EC50 [13] was 9.34 µM (active) and the EC50 [14] was 3.71 µM (inconclusive). The EC50 [15] was 5.28 µM (inconclusive), the EC50 [3] was 1.03 µM (active) and the AC50 [16] was 8.26 µM (active). The AC50 [17] was 2.66 µM (active), the CC50 [18] was 2.9 µM (active) and the AC50 [19] was 8.35 µM (active). For the same compound, the IC50 [20] was 0.737 µM (active), the EC50 [5] was 5.47 µM (active) and the IC50 [21] was 6.77 µM (active).

With `O=C(COC(=O)CCC(=O)c1ccc(Cl)cc1)NCc1ccco1` the IC50 [22] was 26.7 µM (active) and the IC50 [23] was 11.1 µM (active).

For `O=C(NCc1ccccc1)c1cc(-c2ccncc2)nc2ccc(S(=O)(=O)N3CCOCC3)cc12`, the “Absolute IC50 (XBP1)” value [24] was 10 µM.

For `O=C(C1=C(O)C(=O)N(CCCN2CCOCC2)C1c1ccc(Cl)cc1)c1cc2ccccc2o1` (centres undefined), the IC50 [25] was 5.14 µM (active) and the IC50 [26] was > 39.8 µM (not active).

In the case of `CCOC(=O)c1[nH]c2ccc(OC)cc2c1NC(=O)N1CCOCC1`, the IC50 [27] is reported as > 50 µM (inactive).

With `Cc1c(C(=O)OCCOC(C)C)[nH]c2c1C(=O)CC(c1ccco1)C2` (centres undefined) the EC50 [9] was 0.37 µM (active), the EC50 [13] was 1.71 µM (inconclusive) and the EC50 [14] was 0.73 µM (inconclusive). The EC50 [15] was 1.28 µM (inconclusive) and the AC50 [28] was 34 µM (active).

— ChEMBL document CHEMBL1201862, “PubChem BioAssay data set” (2004)
